Measurements from US9926315B2, “Triazolopyridine compounds and methods for the treatment of cystic fibrosis” (Flatley Discovery Lab, LLC, priority 2014, dated 2018).

Target: T1, human ΔF508-CFTR (Homo sapiens, UniProt P13569, DEL508-508)
T1 construct: expressed in transfected cells
Test: CFTR-YFP High Throughput Assay (HTS YFP flux assay, corrector / potentiator protocols)
Format: cell-based
Details: FRT cells stably expressing human ΔF508-CFTR and YFP-H148Q/I152L; for Emax: normalized to positive control, read-out: Emax (% Efficacy, EMax normalized to the positive control)
Description: Assays for Detecting and Measuring the Effect of Compounds on dF508-CFTR Channels CFRT-YFP High Throughput Assay: Corrector Assay:
The following protocol is designed to selectively screen small molecule compounds for F508del CFTR corrector activities in the HTS YFP flux assay. In this protocol, the cells are incubated with testing compounds for 24 hours, washed with PBS, stimulated with forskolin and a standard potentiator, and read on a 384-well HTS plate reader, such as the Hamamatsu FDDD-6000.
(§1) YFP fluorescence intensity is acquired at high speed before and after iodide buffer is injected to the assay cells. Iodide enters the cells via active CFTR channels in the plasma membrane, and quenches the YFP fluorescence. The rate of fluorescence quenching is proportionally related to the total CFTR activities in the cell membrane. dF508-CFTR corrector accelerates YFP quenching by increasing the number of CFTR molecules in the testing cell plasma membrane.
This method was initially developed for bench top plate readers (Galietta, 2001), and was adapted to the HTS format (Sui, 2010).
Fisher Rat Thyroid (FRT) cells stably expressing both human ΔF508-CFTR and a halide-sensitive yellow fluorescent protein (YFP-H148Q/I152L 25, 22) (Galietta, 2001) were cultured on plastic surface in Coon's modified Ham's F12 medium supplemented with FBS 10%, L-glutamine 2 mM, penicillin 100 U/mL, and streptomycin 100 μg/mL. G418 (0.75-1.0 mg/mL) and zeocin (3.2 μg/mL) were used for selection of FRT cells expressing ΔF508-CFTR and YFP. For primary screening, FRT cells were plated into 384-well black wall, transparent bottom microtiter plates (Costar; Corning Inc.) at a cell density of 20, 000-40, 000 per well. Test compound was applied to the cells at varying concentrations ranging from 2 nM-[…] in either a 2-fold or 3-fold dilution series. Cells were incubated in a cell culture incubator at 37° C. with 5% CO2 for 24-26 h. Assay plates were washed with DPBS media (Thermo, cat#SH30028.02) to remove unbound cells and compound. Stimulation media (25 μL) containing 20 μM Forskolin & 30 μM P3 [6-(Ethyl-phenyl-sulfonyl)-4-oxo-1, 4-dihydro-quinoline-3-carboxylic acid 2-methoxy-benzylamide] in Hams F-12 coon's modified media was added to the plate wells and incubated at room temperature for 60-120 min. 25 μL of HEPES-PBS-I buffer (10 mM HEPES, 1 mM MgCl2, 3 mM KCl, 1 mM CaCl2, 150 mM NaI) was then added and fluorescence quench curves (Excitation 500 nm/Emission 540 nm; exposure 136 ms) were immediately recorded on an FDSS-6000 plate reader (Hamamatsu). Quench rates were derived from least squares fitting of the data (Sui, 2010).
The following protocol is designed to selectively screen small molecule compounds for F508del CFTR potentiator activities in the HTS YFP flux assay. In this protocol, the cells are incubated at 27° C. for 24 hours with homogeneously boosted dF508-CFTR expression in the cell membrane by the low temperature, washed with PBS, stimulated with forskolin, and read on a 384-well HTS plate reader, such as the Hamamatsu […].
as §1, with “dF508del-CFTR potentiators accelerate” for “dF508-CFTR corrector accelerates”, “increasing” for “increasing the number of”, “activities” for “molecules”
Fisher Rat Thyroid (FRT) cells stably expressing both human ΔF508-CFTR and a halide-sensitive yellow fluorescent protein (YFP-H148Q/I152L 25, 22) (Galietta, 2001) were cultured on plastic surface in Coon's modified Ham's F12 medium supplemented with FBS 10%, L-glutamine 2 mM, penicillin 100 U/mL, and streptomycin 100 μg/mL. G418 (0.75-1.0 mg/mL) and zeocin (3.2 μg/mL) were used for selection of FRT cells expressing ΔF508-CFTR and YFP. […]

T1 sequence (P13569 with tags, fused parts or gaps DEL508-508): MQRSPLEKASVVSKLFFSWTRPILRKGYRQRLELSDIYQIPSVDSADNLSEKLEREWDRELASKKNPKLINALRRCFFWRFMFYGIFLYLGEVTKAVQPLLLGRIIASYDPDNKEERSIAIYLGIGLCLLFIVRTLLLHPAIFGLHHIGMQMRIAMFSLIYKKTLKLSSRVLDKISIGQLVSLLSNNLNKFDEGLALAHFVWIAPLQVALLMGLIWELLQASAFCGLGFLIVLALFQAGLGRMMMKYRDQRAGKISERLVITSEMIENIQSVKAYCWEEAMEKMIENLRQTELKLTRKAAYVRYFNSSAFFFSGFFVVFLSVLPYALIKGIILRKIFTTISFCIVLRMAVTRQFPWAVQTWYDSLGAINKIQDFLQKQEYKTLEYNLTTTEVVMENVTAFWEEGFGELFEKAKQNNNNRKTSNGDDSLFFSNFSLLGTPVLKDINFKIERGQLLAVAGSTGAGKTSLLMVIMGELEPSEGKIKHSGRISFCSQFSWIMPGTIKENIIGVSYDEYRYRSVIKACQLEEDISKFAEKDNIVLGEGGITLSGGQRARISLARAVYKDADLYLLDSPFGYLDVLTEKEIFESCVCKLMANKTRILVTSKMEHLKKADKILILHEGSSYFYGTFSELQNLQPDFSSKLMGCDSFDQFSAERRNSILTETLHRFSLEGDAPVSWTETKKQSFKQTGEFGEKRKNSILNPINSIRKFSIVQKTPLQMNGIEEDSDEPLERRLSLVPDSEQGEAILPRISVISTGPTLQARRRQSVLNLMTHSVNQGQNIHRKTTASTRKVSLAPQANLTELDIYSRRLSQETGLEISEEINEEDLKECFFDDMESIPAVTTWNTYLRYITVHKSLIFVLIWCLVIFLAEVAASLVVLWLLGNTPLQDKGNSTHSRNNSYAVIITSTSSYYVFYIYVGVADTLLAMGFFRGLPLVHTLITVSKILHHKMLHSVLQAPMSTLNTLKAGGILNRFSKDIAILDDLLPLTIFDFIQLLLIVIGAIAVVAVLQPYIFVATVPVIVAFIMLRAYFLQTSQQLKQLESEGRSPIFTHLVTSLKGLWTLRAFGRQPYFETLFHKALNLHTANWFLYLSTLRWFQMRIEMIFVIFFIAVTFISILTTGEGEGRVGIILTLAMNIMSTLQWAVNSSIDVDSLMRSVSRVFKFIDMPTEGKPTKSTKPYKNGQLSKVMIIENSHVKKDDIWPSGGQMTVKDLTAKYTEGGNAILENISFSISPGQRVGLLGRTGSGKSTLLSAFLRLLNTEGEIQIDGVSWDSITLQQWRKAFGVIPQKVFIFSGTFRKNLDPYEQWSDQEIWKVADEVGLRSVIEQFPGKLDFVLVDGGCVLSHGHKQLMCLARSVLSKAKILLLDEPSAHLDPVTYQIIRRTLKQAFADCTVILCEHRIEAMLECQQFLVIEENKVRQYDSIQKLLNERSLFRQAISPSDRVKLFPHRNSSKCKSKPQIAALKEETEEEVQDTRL

SMILES	EC50 [nM]	Emax [%]
CCN(CC)S(=O)(=O)c1ccc2nnc(N[C@@H](Cc3ccccc3)C(=O)N3CCCCC3)n2c1 [Example 53]	< 1000	> 80
CCN(CC)S(=O)(=O)c1ccc2nnc(NCc3ccccc3F)n2c1 [Example 54]	1000 to 10000	> 80
CCN(CC)S(=O)(=O)c1ccc2nnc(NCc3ccc(OC(F)(F)F)cc3)n2c1 [Example 55]	< 1000	10 to 40
CCN(CC)S(=O)(=O)c1ccc2nnc(NCc3cccc(C#N)c3)n2c1 [Example 56]	< 1000	> 80
CCN(CC)S(=O)(=O)c1ccc2nnc(N[C@@H](C)C(=O)N3CCCCC3)n2c1 [Example 57]	1000 to 10000	40 to 80
CCN(c1cccnc1)S(=O)(=O)c1ccc2nnc(N[C@H](C)c3ccccc3)n2c1 [Example 58, (R)—N-Ethyl-3-((1-phenylethyl)amino)-N-(pyridin-3-yl)-[1,2,4]triazolo[4,3-a]pyridine-6-sulfonamide]	< 1000	40 to 80
COc1ccc(S(=O)(=O)Nc2ccc3nnc(NCc4ccccc4)n3c2)cc1 [Example 59, N-(3-(Benzylamino)-[1,2,4]triazolo[4,3-a]pyridine-6-yl)-4-methoxybenzenesulfonamide]	< 1000	40 to 80
CCN(CC)S(=O)(=O)c1ccn2c(NCC(C)(C)C)nnc2c1 [Example 60, N,N-Diethyl-3-(neopentylamino)-[1,2,4]triazolo[4,3-a]pyridine-7-sulfonamide]	< 1000	> 80
CCN(CC)S(=O)(=O)c1ccc2nnc(NCc3ccccc3)n2c1C [Example 61, 3-(Benzylamino)-N,N-diethyl-5-methyl-[1,2,4]triazolo[4,3-a]pyridine-6-sulfonamide]	1000 to 10000	10 to 40
C[C@@H](Nc1nnc2ccc(S(=O)(=O)c3ccccc3)cn12)c1ccccc1 [Example 62, (R)—N-(1-Phenylethyl)-6-(phenylsulfonyl)-[1,2,4]triazolo[4,3-a]pyridin-3-amine]	< 1000	> 80
O=S(=O)(c1ccccc1)c1ccc2nnc(NCc3ccc(C(F)(F)F)cc3)n2c1 [Example 63]	< 1000	40 to 80
O=S(=O)(c1ccccc1)c1ccc2nnc(NC3Cc4ccccc4C3)n2c1 [Example 64]	< 1000	> 80
O=S(=O)(c1ccccc1)c1ccc2nnc(NCc3ccc(-c4ccccn4)cc3)n2c1 [Example 65]	< 1000	> 80
O=S(=O)(c1ccccc1)c1ccc2nnc(NCC(O)C3CCCCC3)n2c1 (centres unmarked) [Example 66]	< 1000	> 80
O=S(=O)(c1ccccc1)c1ccc2nnc(NCC(O)COc3ccccc3)n2c1 (centres unmarked) [Example 67]	< 1000	> 80
COC[C@@H](Nc1nnc2ccc(S(=O)(=O)c3ccccc3)cn12)c1ccccc1 [Example 68]	< 1000	> 80
O=S(=O)(c1ccccc1)c1ccc2nnc(NC[C@H](O)C3CCCCC3)n2c1 [Example 69]	< 1000	> 80
O=S(=O)(c1ccccc1)c1ccc2nnc(NC[C@H](O)c3ccccc3)n2c1 [Example 70]	< 1000	> 80
COc1cccc(S(=O)(=O)c2ccc3nnc(N[C@H](C)c4ccccc4)n3c2)c1 [Example 71]	1000 to 10000	> 80
C[C@@H](Nc1nnc2ccc(S(=O)(=O)c3ccc(Cl)cc3)cn12)c1ccccc1 [Example 72]	1000 to 10000	> 80
O=S(=O)(c1ccccc1)c1ccc2nnc(NCC(O)C3CCCC3)n2c1 (centres unmarked) [Example 73]	< 1000	> 80
CC(C)(C)C(=O)OC(CNc1nnc2ccc(S(=O)(=O)c3ccccc3)cn12)C1CCCCC1 (centres unmarked) [Example 74]	< 1000	> 80
O=S(=O)(c1ccccc1)c1ccc2nnc(NCC(O)c3ccc(F)cc3)n2c1 (centres unmarked) [Example 75]	< 1000	> 80
O=S(=O)(c1ccccc1)c1ccc2nnc(NCCC3CCCCC3)n2c1 [Example 76]	1000 to 10000	> 80
CCOC(=O)OC(CNc1nnc2ccc(S(=O)(=O)c3ccccc3)cn12)C1CCCCC1 (centres unmarked) [Example 77]	< 1000	> 80

Other lines, results leading:

EC50 [nM]	Emax [%]	SMILES
< 1000	> 80	O=S(=O)(c1ccccc1)c1ccc2nnc(NCC(O)C3CCCCCC3)n2c1 (centres unmarked) [Example 78]
1000 to 10000	> 80	O=C(CNc1nnc2ccc(S(=O)(=O)c3ccccc3)cn12)C1CCCCC1 [Example 79]
< 1000	> 80	O=S(=O)(c1ccccc1)c1ccc2nc(NC3Cc4ccccc4C3)nn2c1 [Example 80, N-(2,3-dihydro-1H-inden-2-yl)-6-(phenylsulfonyl)-[1,2,4]triazolo[1,5-a]pyridin-2-amine]
< 1000	> 80	C[C@@H](Nc1nc2ccc(S(=O)(=O)c3ccccc3)cn2n1)c1ccccc1 [Example 81]
< 1000	> 80	O=S(=O)(c1ccccc1)c1ccc2nc(NCc3cccc(C(F)(F)F)c3)nn2c1 [Example 82]
< 1000	> 80	O=S(=O)(c1ccccc1)c1ccc2nc(NC[C@H](O)c3ccccc3)nn2c1 [Example 83]
1000 to 10000	> 80	O=S(=O)(c1ccccc1)c1ccc2nc(NCC(O)C3CCCCC3)nn2c1 (centres unmarked) [Example 84]
< 1000	> 80	O=S(=O)(c1ccccc1)c1ccc2nc(NC[C@@H](O)c3ccccc3)nn2c1 [Example 85]
< 1000	> 80	O=S(=O)(c1ccccc1)c1ccc2nc(NCC3CC3)nn2c1 [Example 86]
< 1000	> 80	O=C(CNc1nc2ccc(S(=O)(=O)c3ccccc3)cn2n1)C1CCCCC1 [Example 87]
< 1000	> 80	O=S(=O)(c1ccccc1)c1ccc2nc(NCCC3CCCCC3)nn2c1 [Example 88]
1000 to 10000	40 to 80	Cc1ccc([C@@H](C)Nc2nc3ccc(S(=O)(=O)c4ccccc4)cn3n2)cc1 [Example 90]
< 1000	40 to 80	O=C(c1ccc(CNc2nc3ccc(S(=O)(=O)c4ccccc4)cn3n2)cc1)N1CCC1 [Example 91]
1000 to 10000	40 to 80	O=S(=O)(c1ccccc1)c1ccc2nc(NCc3ccc(C4CCOCC4)cc3)nn2c1 [Example 92]
< 1000	> 80	CN1CCC(c2ccc(CNc3nc4ccc(S(=O)(=O)c5ccccc5)cn4n3)cc2)CC1 [Example 93]
< 1000	> 80	O=S(=O)(c1ccccc1)c1ccc2nc(NCc3ccc(-c4ccccn4)cc3)nn2c1 [Example 94, 6-(phenylsulfonyl)-N-(4-(pyridin-2-yl)benzyl)-[1,2,4]triazolo[1,5-a]pyridin-2-amine]
1000 to 10000	40 to 80	c1ccc(-c2ccc3nc(Nc4ccc(-c5ccccn5)cc4)nn3c2)cc1 [Example 100, 6-phenyl-N-(4-(pyridin-2-yl)phenyl)-[1,2,4]triazolo[1,5-a]pyridin-2-amine]
1000 to 10000	> 80	O=S(=O)(c1ccc2nc(NCc3ccc4c(c3)OCO4)nn2c1)N1CCCCC1 [Example 101, N-(benzo[d][1,3]dioxol-5-ylmethyl)-6-(piperidin-1-ylsulfonyl)-[1,2,4]-triazolo[1,5-a]pyridin-2-amine]
